# Measurements: US4927919A, “Chartreusin derivatives and salts thereof” (Ishihara Sangyo Kaisha, Ltd., priority 1985, dated 1990)
# Structures can show the parent of a compound that is named as a salt.
# Tests used:
# [1] = Acute toxicity (LD50, single intravenous administration); set-up: species or system day mice; conditions: mouse, in vivo, mice, single i.v.
# Description: In Table 15 are shown acute toxicity values (LD50, mg/kg) in day mice in the case of intravenously administering (once) each of the compounds of this invention in the form of preparations shown in the Preparation Examples shown in Table 16.
# [2] = system: P-388 leukemia cells; experiment: Antitumor activity against P-388 leukemia cells (i.p. implanted, i.v. drug); format: in vivo, BDF1 mice; conditions: i.v., 30-day observation; for response vs control in vivo at 20 mg/kg / response vs control in vivo at 40 mg/kg / response vs control in vivo at 80 mg/kg / response vs control in vivo at 60 mg/kg / response vs control in vivo at 20 mg/kg/day / response vs control in vivo at 40 mg/kg/day / response vs control in vivo at 30 mg/kg: Mus musculus, P388, iv, 720 h, read-out: T/C of MST; for response vs control in vivo at 20 mg/kg: dose b: 20 mg/kg/d × 3 (days 1, 5, 9); for response vs control in vivo at 40 mg/kg: dose c: 40 mg/kg/d × 3 (days 1, 5, 9); for response vs control in vivo at 60 mg/kg: dose e: 60 mg/kg/d × 3 (days 1, 5, 9); for response vs control in vivo at 20 mg/kg/day: dose b': 20 mg/kg/d × 2 (days 1, 5); for response vs control in vivo at 40 mg/kg/day: dose c': 40 mg/kg/d × 2 (days 1, 5); for response vs control in vivo at 30 mg/kg: dose j: 30 mg/kg/d × 3 (days 1, 5, 9)
# Procedure: BDF1 mice were implanted intraperitoneally with P-388 leukemia cells at a rate of 1×10^6 cells/mouse, and each drug to be tested was administered intravenously on the first, fifth and ninth days, or on the first and fifth days after the implantation. […] The T/C (%) was calculated based on the following equation: [formula]
# The drugs tested were as follows: solutions prepared by dissolving each of compound Nos. 34, 36 and 43 to 46 in physiological saline; suspension or solutions prepared by dissolving each of compound Nos. 35, 38 and 49 to 55 in dimethylacetamide, followed by adding thereto a small amount of a surface active agent (e.g., Tween-80) and then physiological saline; and suspension or solutions prepared by mixing each of the other compounds and a small amount of a surface active agent (e.g., Tween-80), followed by adding thereto physiological saline.
# [3] = dose f: 80 mg/kg/d × 3 (days 1, 5, 9)
smiles,measurement,setting,value
COC1C(O)C(C)OC(OC2C(Oc3cccc4c(OC(=O)Cc5c[nH]c6ccccc56)c5c(=O)oc6ccc(C)c7c(=O)oc(c34)c5c67)OC(C)C3OC(c4ccccc4)OC32)C1O (stereo not shown) [Compound 20],LD50,[1]; Preparation Example 2,≥ 40 mg/kg
same,response vs control in vivo at 20 mg/kg,[2],148%
same,response vs control in vivo at 40 mg/kg,[2],286%
COC1C(O)C(C)OC(OC2C(Oc3cccc4c(OC(=O)c5cc(-c6ccccc6)nc6ccccc56)c5c(=O)oc6ccc(C)c7c(=O)oc(c34)c5c67)OC(C)C3OC(c4ccccc4)OC32)C1O (stereo not shown) [Compound 28],LD50,[1]; Preparation Example 1,≥ 20 mg/kg
same,response vs control in vivo at 20 mg/kg,[2],197%
same,response vs control in vivo at 80 mg/kg,[2]; [3],192%
"COC1C(N)C(C)OC(OC2C(Oc3cccc4c(OC(=O)CC(C)C)c5c(=O)oc6ccc(C)c7c(=O)oc(c34)c5c67)OC(C)C3OC(c4ccccc4)OC32)C1O (stereo not shown) [Compound 39, 6-O-(3-methyl-n-butyryl)-3',4',-O-benzylidene-4""-epiamino-4""-deoxy-chartreusin hydrochloride]",LD50,[1]; Preparation Example 9,≥ 60 mg/kg
same,response vs control in vivo at 40 mg/kg,[2],207%
same,response vs control in vivo at 60 mg/kg,[2],240%
COC1C(O)C(C)OC(OC2C(Oc3cccc4c(OC(=O)C5CCN(C(=O)C(F)(F)F)CC5)c5c(=O)oc6ccc(C)c7c(=O)oc(c34)c5c67)OC(C)C3OC(C)(C)OC32)C1O (stereo not shown) [Compound 23],LD50,[1]; Preparation Example 3,≥ 40 mg/kg
same,response vs control in vivo at 40 mg/kg,[2],127%
COC1C(O)C(C)OC(OC2C(Oc3cccc4c(OC(=O)c5ccc(C)s5)c5c(=O)oc6ccc(C)c7c(=O)oc(c34)c5c67)OC(C)C3OC(C)(C)OC32)C1O (stereo not shown) [Compound 12],LD50,[1]; Preparation Example 3,≥ 80 mg/kg
same,response vs control in vivo at 80 mg/kg,[2]; [3],194%
CCn1cc(C(=O)Oc2c3cccc(OC4OC(C)C5OC(c6ccccc6)OC5C4OC4OC(C)C(O)C(OC)C4O)c3c3oc(=O)c4c(C)ccc5oc(=O)c2c3c54)c(=O)c2ccc(C)nc21 (stereo not shown) [Compound 108],LD50,[1]; Preparation Example 4,≥ 80 mg/kg
same,response vs control in vivo at 80 mg/kg,[2]; [3],158%
"COC1C(N)C(C)OC(OC2C(Oc3cccc4c(OC(=O)C(C)CN)c5c(=O)oc6ccc(C)c7c(=O)oc(c34)c5c67)OC(C)C3OC(c4ccccc4)OC32)C1O (stereo not drawn) [Compound 34, 6-O-(β-amino-isobutyryl)-3',4'-benzylidene-4""-epiamino-4""-deoxy-chartreusin dihydrochloride]",LD50,[1]; Preparation Example 8,≥ 40 mg/kg
same,response vs control in vivo at 20 mg/kg,[2],140%
same,response vs control in vivo at 40 mg/kg,[2],219%
CNCC(C)C(=O)Oc1c2cccc(OC3OC(C)C4OC(c5ccccc5)OC4C3OC3OC(C)C(N)C(OC)C3O)c2c2oc(=O)c3c(C)ccc4oc(=O)c1c2c43 (stereo not shown) [Compound 44],LD50,[1]; Preparation Example 8,≥ 40 mg/kg
same,response vs control in vivo at 20 mg/kg,[2],138%
same,response vs control in vivo at 40 mg/kg,[2],148%
COC1C(O)C(C)OC(OC2C(Oc3cccc4c(OC(=O)c5ccc[nH]5)c5c(=O)oc6ccc(C)c7c(=O)oc(c34)c5c67)OC(C)C3OC(c4ccccc4)OC32)C1O (stereo not shown) [Compound 1],LD50,[1]; Preparation Example 1,≥ 40 mg/kg
same,response vs control in vivo at 20 mg/kg/day,[2],154%
same,response vs control in vivo at 40 mg/kg/day,[2],188%
COC1C(O)C(C)OC(OC2C(Oc3cccc4c(OC(=O)c5ccc[nH]5)c5c(=O)oc6ccc(C)c7c(=O)oc(c34)c5c67)OC(C)C3OC(c4cccc(Br)c4)OC32)C1O (stereo not shown) [Compound 31],LD50,[1]; Preparation Example 1,≥ 40 mg/kg
same,response vs control in vivo at 40 mg/kg,[2],128%
COC1C(O)C(C)OC(OC2C(Oc3cccc4c(OC(=O)CCCc5c[nH]c6ccccc56)c5c(=O)oc6ccc(C)c7c(=O)oc(c34)c5c67)OC(C)C3OC(c4ccccc4)OC32)C1O (stereo not shown) [Compound 104],LD50,[1]; Preparation Example 2,≥ 60 mg/kg
same,response vs control in vivo at 20 mg/kg,[2],185%
same,response vs control in vivo at 60 mg/kg,[2],256%
same,response vs control in vivo at 30 mg/kg,[2],219%
CCn1cc(C(=O)Oc2c3cccc(OC4OC(C)C5OC(c6ccccc6)OC5C4OC4OC(C)C(O)C(OC)C4O)c3c3oc(=O)c4c(C)ccc5oc(=O)c2c3c54)c(=O)c2cnc(N3CCCC3)nc21 (stereo not shown) [Compound 105],LD50,[1]; Preparation Example 2,≥ 60 mg/kg
same,response vs control in vivo at 60 mg/kg,[2],256%
same,response vs control in vivo at 30 mg/kg,[2],165%
"COc1ccc2[nH]c(C(=O)Oc3c4cccc(OC5OC(C)C6OC(c7ccccc7)OC6C5OC5OC(C)C(O)C(OC)C5O)c4c4oc(=O)c5c(C)ccc6oc(=O)c3c4c65)cc2c1 (stereo not shown) [Compound 19, 6-O-{2-(5-methoxyindolyl)-carbonyl}-3',4'-O-benzylidene-chartreusin]",LD50,[1]; Preparation Example 2,≥ 40 mg/kg
same,response vs control in vivo at 20 mg/kg,[2],131%
same,response vs control in vivo at 40 mg/kg,[2],165%
"COC1C(O)C(C)OC(OC2C(Oc3cccc4c(OC(=O)c5cc6ccccc6[nH]5)c5c(=O)oc6ccc(C)c7c(=O)oc(c34)c5c67)OC(C)C3OC(c4cccc(F)c4)OC32)C1O (stereo not shown) [Compound 30, 6-O-(2-indolyl-carbonyl)-3',4'-O-(m-fluorobenzylidene)-chartreusin]",LD50,[1]; Preparation Example 2,≥ 80 mg/kg
same,response vs control in vivo at 80 mg/kg,[2]; [3],142%
"COC1C(O)C(C)OC(OC2C(Oc3cccc4c(OC(=O)c5ccc(Br)o5)c5c(=O)oc6ccc(C)c7c(=O)oc(c34)c5c67)OC(C)C3OC(C)(C)OC32)C1O (stereo not shown) [Compound 8, 6-O-{2-(5-bromofuryl)-carbonyl}-3',4'-O-isopropylidene-chartreusin]",LD50,[1]; Preparation Example 3,≥ 80 mg/kg
same,response vs control in vivo at 80 mg/kg,[2]; [3],178%
COC1C(O)C(C)OC(OC2C(Oc3cccc4c(OC(=O)c5cccs5)c5c(=O)oc6ccc(C)c7c(=O)oc(c34)c5c67)OC(C)C3OC(C)(C)OC32)C1O (stereo not shown) [Compound 62],LD50,[1]; Preparation Example 2,≥ 80 mg/kg
same,T/C of MST,[2]; [3],131%
COC1C(O)C(C)OC(OC2C(Oc3cccc4c(OC(=O)c5cc6cc(O)ccc6[nH]5)c5c(=O)oc6ccc(C)c7c(=O)oc(c34)c5c67)OC(C)C3OC(c4ccccc4)OC32)C1O (stereo not shown) [Compound 102],LD50,[1]; Preparation Example 1,≥ 60 mg/kg
same,response vs control in vivo at 60 mg/kg,[2],256%
same,response vs control in vivo at 30 mg/kg,[2],233%
COC1C(N)C(C)OC(OC2C(Oc3cccc4c(OC(=O)C(C)CNC(=O)C(F)(F)F)c5c(=O)oc6ccc(C)c7c(=O)oc(c34)c5c67)OC(C)C3OC(C)(C)OC32)C1O (stereo not shown) [Compound 56],LD50,[1]; Preparation Example 1,≥ 80 mg/kg
same,response vs control in vivo at 80 mg/kg,[2]; [3],138%
COC1C(N)C(C)OC(OC2C(Oc3cccc4c(OC(=O)Cc5ccccc5)c5c(=O)oc6ccc(C)c7c(=O)oc(c34)c5c67)OC(C)C3OC(c4ccccc4)OC32)C1O (stereo not shown) [Compound 50],LD50,[1]; Preparation Example 7,≥ 40 mg/kg
same,response vs control in vivo at 20 mg/kg/day,[2],165%
same,response vs control in vivo at 40 mg/kg/day,[2],208%
"COc1cccc(C(=O)Oc2c3cccc(OC4OC(C)C5OC(c6ccccc6)OC5C4OC4OC(C)C(N)C(OC)C4O)c3c3oc(=O)c4c(C)ccc5oc(=O)c2c3c54)c1 (stereo not shown) [Compound 51, 6-O-(m-methoxybenzoyl)-3',4'-O-benzylidene-4""-epiamino-4""-deoxy-chartreusin]",LD50,[1]; Preparation Example 6,≥ 40 mg/kg
same,response vs control in vivo at 20 mg/kg,[2],185%
same,response vs control in vivo at 40 mg/kg,[2],244%
CNCCC(=O)Oc1c2cccc(OC3OC(C)C4OC(c5ccccc5)OC4C3OC3OC(C)C(N)C(OC)C3O)c2c2oc(=O)c3c(C)ccc4oc(=O)c1c2c43 (stereo not shown) [Compound 43],LD50,[1]; Preparation Example 8,≥ 40 mg/kg
same,response vs control in vivo at 20 mg/kg,[2],150%
same,response vs control in vivo at 40 mg/kg,[2],230%
COC1C(N)C(C)OC(OC2C(Oc3cccc4c(OC(=O)c5ccc(Cl)cc5)c5c(=O)oc6ccc(C)c7c(=O)oc(c34)c5c67)OC(C)C3OC(c4ccccc4)OC32)C1O (stereo not shown) [Compound 52],LD50,[1]; Preparation Example 6,≥ 20 mg/kg
same,response vs control in vivo at 20 mg/kg,[2],167%
COC1C(N)C(C)OC(OC2C(Oc3cccc4c(OC(=O)CC(C)NC(=O)C(F)(F)F)c5c(=O)oc6ccc(C)c7c(=O)oc(c34)c5c67)OC(C)C3OC(c4ccccc4)OC32)C1O (stereo not shown) [Compound 41],LD50,[1]; Preparation Example 1,≥ 40 mg/kg
same,response vs control in vivo at 40 mg/kg,[2],187%
COC1C(O)C(C)OC(OC2C(Oc3cccc4c(OC(=O)C5CC(OC(C)=O)CC(C)(C)O5)c5c(=O)oc6ccc(C)c7c(=O)oc(c34)c5c67)OC(C)C3OC(c4ccccc4)OC32)C1O (stereo not shown) [Compound 26],LD50,[1]; Preparation Example 2,≥ 20 mg/kg
